Activity calls are given as the source filed them. The calls are words filed in the database; no cut-off is given here.
How the values were obtained:
MCF7 [1] = test: Antiproliferative activity against human MCF7 cells assessed as inhibition of cell growth incubated for 48 hrs by MTT assay; format: functional, cell-based; details: MCF7, 48 h
NCI/ADR-RES [2] = test: Antiproliferative activity against human MCF7ADR cells assessed as inhibition of cell growth incubated for 48 hrs by MTT assay; format: functional, cell-based
[3] = Selectivity index, ratio of IC50 for antiproliferative activity against human MCF7 cells assessed as inhibition of cell growth to IC50 for antiproliferative activity against human MCF7ADR cells assessed as inhibition of cell growth; format: functional
A549 = test: Antiproliferative activity against human A549 cells assessed as inhibition of cell growth incubated for 48 hrs by MTT assay; format: functional, cell-based; details: A549, 48 h
A549/TR = test: Antiproliferative activity against human A549/Taxol cells assessed as inhibition of cell growth incubated for 48 hrs by MTT assay; format: functional, cell-based
[4] = Selectivity index, ratio of IC50 for antiproliferative activity against human A549 cells assessed as inhibition of cell growth to IC50 for antiproliferative activity against human A549/Taxol cells assessed as inhibition of cell growth; format: functional
HepG2 = test: Antiproliferative activity against human HepG2 cells assessed as inhibition of cell growth incubated for 48 hrs by MTT assay; format: functional, cell-based; details: HepG2, 48 h
PC-3 = test: Antiproliferative activity against human PC-3 cells assessed as inhibition of cell growth incubated for 48 hrs by MTT assay; format: functional, cell-based; details: PC-3, 48 h
[5] = Cytotoxicity against human MCF-10A cells assessed as inhibition of cell growth incubated for 48 hrs by MTT assay; format: toxicity, cell-based
[6] = Cytotoxicity against human BEAS-2B cells assessed as inhibition of cell growth incubated for 48 hrs by MTT assay; format: toxicity, cell-based
[7] = Selectivity index, ratio of IC50 for human MCF-10A to IC50 for human MDA-MB-231 cells; format: toxicity; details: MCF-10A cells and MDA-MB-231 cells, read-out: Ratio IC50
NCI/ADR-RES [8] = test: Induction of NO release in human MCF7ADR cells at 100 uM by Griess reagent assay; format: functional, cell-based; details: time <= 10.0 hrs
MCF7 [9] = test: Induction of NO release in human MCF7 cells at 100 uM measured for 5 hrs by Griess reagent assay; format: functional, cell-based
NCI/ADR-RES [10] = test: Induction of NO release in human MCF7ADR cells at 100 uM measured for 5 hrs by Griess reagent assay; format: functional, cell-based

Row | Structure (SMILES) | IC50 (MCF7 [1]) [µM] | IC50 (NCI/ADR-RES [2]) [µM] | Ratio IC50 [3] | IC50 (A549) [µM] | IC50 (A549/TR) [µM] | Ratio IC50 [4] | IC50 (HepG2) [µM] | IC50 (PC-3) [µM] | IC50 at 48 h [5] [µM] | IC50 at 48 h [6] [µM] | selectivity ratio [7] | Activity (NCI/ADR-RES [8]) | Activity (MCF7 [9]) | Activity (NCI/ADR-RES [10])
1 | O=S(=O)(c1ccccc1)c1c(OCCOCCOc2cccc3c2Oc2cccc(c2)CCc2ccc(O)c(c2)Oc2ccc(cc2)CC3)no[n+]1[O-] | 15.2 | 1.01 | 15 | > 40 | 12.1 | >3 | > 20 | 4.41 | < 2.5 | 5.14 | – | – | – | –
2 | O=S(=O)(c1ccccc1)c1c(OCCCCOc2cccc3c2Oc2cccc(c2)CCc2ccc(O)c(c2)Oc2ccc(cc2)CC3)no[n+]1[O-] | > 20 | 0.098 | >204 | > 40 | 5.92 | >7 | > 20 | > 20 | 8.32 | > 20 | – | – | – | –
3 | O=S(=O)(c1ccccc1)c1c(OCCCOc2ccc3cc2Oc2ccc(cc2)CCc2cccc(OCCCOc4no[n+]([O-])c4S(=O)(=O)c4ccccc4)c2Oc2cccc(c2)CC3)no[n+]1[O-] | 21 | 1 | 21 | 38.4 | 10.2 | 4 | > 20 | > 20 | – | – | – | – | – | –
4 | O=S(=O)(c1ccccc1)c1c(OCCCCOc2ccc3cc2Oc2ccc(cc2)CCc2cccc(OCCCCOc4no[n+]([O-])c4S(=O)(=O)c4ccccc4)c2Oc2cccc(c2)CC3)no[n+]1[O-] | > 20 | > 3 | <7 | > 40 | > 20 | – | > 20 | > 20 | – | – | – | – | – | –
5 | CCN(CC)c1ccc2cc(C(=O)OCCCCCOc3cc4ccc(=O)oc4cc3OCCCCCCOc3no[n+]([O-])c3S(=O)(=O)c3ccccc3)c(=O)oc2c1 | – | – | – | – | – | – | – | – | – | – | > 6250 | – | – | –
6 | O=S(=O)(c1ccccc1)c1c(OCCOc2ccc3cc2Oc2ccc(cc2)CCc2cccc(O)c2Oc2cccc(c2)CC3)no[n+]1[O-] | 10.9 | 0.2 | 55 | 15.2 | 5.36 | 3 | – | 2.69 | – | – | – | – | – | –
7 | O=S(=O)(c1ccccc1)c1c(OCCCOc2ccc3cc2Oc2ccc(cc2)CCc2cccc(O)c2Oc2cccc(c2)CC3)no[n+]1[O-] | 8.5 | 0.24 | 35 | 33.6 | 4.79 | 7 | – | 1.2 | – | < 2.5 | – | – | – | –
8 | O=C(CCCOc1no[n+]([O-])c1S(=O)(=O)c1ccccc1)Oc1cccc2c1Oc1cccc(c1)CCc1ccc(O)c(c1)Oc1ccc(cc1)CC2 | – | – | – | > 40 | – | – | > 20 | > 20 | – | – | – | – | – | –
9 | O=S(=O)(c1ccccc1)c1c(OC/C=C\COc2cccc3c2Oc2cccc(c2)CCc2ccc(O)c(c2)Oc2ccc(cc2)CC3)no[n+]1[O-] | > 20 | > 3 | <7 | > 40 | > 20 | – | – | – | – | – | – | – | – | –
10 | O=[N+]([O-])c1ccc(O/N=[N+](\[O-])N2CCN(Cc3ccc4c(c3O)Oc3cccc(c3)CCc3ccc(O)c(c3)Oc3ccc(cc3)CC4)CC2)c([N+](=O)[O-])c1 | > 20 | > 3 | <7 | > 40 | – | – | > 20 | > 20 | – | – | – | Time-dependent-effect | – | –
11 | O=C(CCCCCOc1no[n+]([O-])c1S(=O)(=O)c1ccccc1)Oc1cccc2c1Oc1cccc(c1)CCc1ccc(O)c(c1)Oc1ccc(cc1)CC2 | – | – | – | > 40 | – | – | > 20 | > 20 | – | – | – | – | – | –
12 | O=S(=O)(c1ccccc1)c1c(OC/C=C\COc2ccc3cc2Oc2ccc(cc2)CCc2cccc(OC/C=C\COc4no[n+]([O-])c4S(=O)(=O)c4ccccc4)c2Oc2cccc(c2)CC3)no[n+]1[O-] | > 20 | > 3 | <7 | – | – | – | – | – | – | – | – | – | – | –
13 | O=S(=O)(c1ccccc1)c1c(OCCCCCCOc2ccc3cc2Oc2ccc(cc2)CCc2cccc(OCCCCCCOc4no[n+]([O-])c4S(=O)(=O)c4ccccc4)c2Oc2cccc(c2)CC3)no[n+]1[O-] | 27.8 | > 3 | <9 | > 40 | > 20 | – | > 20 | > 20 | – | – | – | – | – | –
14 | O=[N+]([O-])OCC(COc1ccc2cc1Oc1ccc(cc1)CCc1cccc(OCC(CO[N+](=O)[O-])O[N+](=O)[O-])c1Oc1cccc(c1)CC2)O[N+](=O)[O-] (stereo not given) | > 20 | > 20 | – | > 40 | – | – | > 20 | > 20 | – | – | – | – | – | –
15 | O=C(/N=c1/c[n+](-c2ccccc2)[n-]o1)Oc1ccc2cc1Oc1ccc(cc1)CCc1cccc(OC(=O)/N=c3/c[n+](-c4ccccc4)[n-]o3)c1Oc1cccc(c1)CC2 | – | – | – | > 40 | – | – | > 20 | > 20 | – | – | – | – | – | –
16 | O=S(=O)(c1ccccc1)c1c(Oc2ccc(COc3cccc4c3Oc3cccc(c3)CCc3ccc(O)c(c3)Oc3ccc(cc3)CC4)cc2)no[n+]1[O-] | > 20 | > 3 | <7 | > 40 | – | – | > 20 | > 20 | – | – | – | – | – | –
17 | O=C(CCCOc1no[n+]([O-])c1S(=O)(=O)c1ccccc1)Oc1ccc2cc1Oc1ccc(cc1)CCc1cccc(OC(=O)CCCOc3no[n+]([O-])c3S(=O)(=O)c3ccccc3)c1Oc1cccc(c1)CC2 | 15.2 | 0.68 | 22 | 39.5 | 15.1 | 3 | > 20 | > 20 | – | – | – | – | – | –
18 | O=S(=O)(c1ccccc1)c1c(OCCOc2cccc3c2Oc2cccc(c2)CCc2ccc(O)c(c2)Oc2ccc(cc2)CC3)no[n+]1[O-] | 9.1 | 0.9 | 10 | 19.1 | 3.39 | 6 | 1.69 | 2.92 | – | 13.7 | – | – | – | –
19 | O=C(/C=C\COc1no[n+]([O-])c1S(=O)(=O)c1ccccc1)Oc1ccc2cc1Oc1ccc(cc1)CCc1cccc(OC(=O)/C=C\COc3no[n+]([O-])c3S(=O)(=O)c3ccccc3)c1Oc1cccc(c1)CC2 | – | – | – | > 40 | – | – | > 20 | > 20 | – | – | – | – | – | –
20 | CO/N=[N+](\[O-])N1CCN(Cc2ccc3c(c2O)Oc2cccc(c2)CCc2ccc(O)c(c2)Oc2ccc(cc2)CC3)CC1 | – | – | – | > 40 | – | – | > 20 | > 20 | – | – | – | – | – | –
21 | CCO/N=[N+](\[O-])N1CCN(Cc2ccc3c(c2O)Oc2cccc(c2)CCc2ccc(O)c(c2)Oc2ccc(cc2)CC3)CC1 | – | – | – | > 40 | – | – | > 20 | > 20 | – | – | – | – | – | –
22 | O=[N+]([O-])OCC(COc1cccc2c1Oc1cccc(c1)CCc1ccc(O)c(c1)Oc1ccc(cc1)CC2)O[N+](=O)[O-] (stereo not given) | > 20 | > 20 | – | > 40 | – | – | > 20 | 11.7 | – | – | – | Time-dependent-effect | inactive | inactive
23 | O=S(=O)(c1ccccc1)c1c(OCCOc2ccc3cc2Oc2ccc(cc2)CCc2cccc(OCCOc4no[n+]([O-])c4S(=O)(=O)c4ccccc4)c2Oc2cccc(c2)CC3)no[n+]1[O-] | 24.9 | 3.2 | 8 | 41.2 | 11.5 | 4 | > 20 | > 20 | – | – | – | – | – | –
24 | O=C(/C=C\COc1no[n+]([O-])c1S(=O)(=O)c1ccccc1)Oc1cccc2c1Oc1cccc(c1)CCc1ccc(O)c(c1)Oc1ccc(cc1)CC2 | 13.7 | > 3 | <5 | > 40 | > 20 | – | 6.46 | > 20 | – | – | – | – | – | –
25 | O=C(/N=c1\c[n+](-c2ccccc2)[n-]o1)Oc1cccc2c1Oc1cccc(c1)CCc1ccc(O)c(c1)Oc1ccc(cc1)CC2 | > 20 | > 20 | – | > 40 | – | – | > 20 | > 20 | – | – | – | Time-dependent-effect | inactive | inactive
26 | COc1cccc2c1C(=O)c1c(O)c3c(c(O)c1C2=O)C[C@@](O)(C(=O)CO)C[C@@H]3O[C@H]1C[C@H](N)[C@H](O)[C@H](C)O1 [DOXORUBICIN] | < 0.025 | 32 | <0.001 | – | – | – | – | – | < 2.5 | < 2.5 | – | – | – | –
27 | O=C(CCCCCOc1no[n+]([O-])c1S(=O)(=O)c1ccccc1)Oc1ccc2cc1Oc1ccc(cc1)CCc1cccc(OC(=O)CCCCCOc3no[n+]([O-])c3S(=O)(=O)c3ccccc3)c1Oc1cccc(c1)CC2 | > 20 | > 3 | <7 | > 40 | > 20 | – | > 20 | > 20 | – | – | – | – | – | –
28 | O=S(=O)(c1ccccc1)c1c(OCCCCCCOc2cccc3c2Oc2cccc(c2)CCc2ccc(O)c(c2)Oc2ccc(cc2)CC3)no[n+]1[O-] | > 20 | 0.37 | >54 | > 40 | 6.65 | >6 | > 20 | > 20 | > 20 | > 20 | – | – | – | –
29 | CC(=O)CCCCn1c(=O)c2c(ncn2C)n(C)c1=O [PENTOXIFYLLINE] | – | – | – | 11 | > 20 | <0.5 | – | – | – | – | – | – | – | –

Source: ChEMBL document CHEMBL6103624, “Design, Synthesis, and Biological Evaluation of Marchantin C-NO Donor Hybrids for Overcoming Pgp-Mediated Drug Resistance by Targeting Lysosome” (J Med Chem, 2025)
